Where two headings read alike, the source gives them in different places.

Consider 27 compounds from patent US8163909B2, “Substituted hydroxyethyl amine compounds as beta-secretase modulators and methods of use” (Amgen Inc., priority 2007, dated 2012).

Assay [1] deals with Beta Secretase enzyme (BACE) (Homo sapiens, UniProt P56817). As to the kind of experiment: In vitro enzymatic BACE FRET (fluorescence resonance energy transfer) assay.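 Also: fluorescence read after 1 h with 50 nM quenched peptide substrate spanning the BACE cleavage site, in pH 4.2 acetate buffer containing 10% DMSO and nonionic detergent.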 In kind it is biochemical.
Beta Secretase enzyme (BACE), sequence (P56817 46-501): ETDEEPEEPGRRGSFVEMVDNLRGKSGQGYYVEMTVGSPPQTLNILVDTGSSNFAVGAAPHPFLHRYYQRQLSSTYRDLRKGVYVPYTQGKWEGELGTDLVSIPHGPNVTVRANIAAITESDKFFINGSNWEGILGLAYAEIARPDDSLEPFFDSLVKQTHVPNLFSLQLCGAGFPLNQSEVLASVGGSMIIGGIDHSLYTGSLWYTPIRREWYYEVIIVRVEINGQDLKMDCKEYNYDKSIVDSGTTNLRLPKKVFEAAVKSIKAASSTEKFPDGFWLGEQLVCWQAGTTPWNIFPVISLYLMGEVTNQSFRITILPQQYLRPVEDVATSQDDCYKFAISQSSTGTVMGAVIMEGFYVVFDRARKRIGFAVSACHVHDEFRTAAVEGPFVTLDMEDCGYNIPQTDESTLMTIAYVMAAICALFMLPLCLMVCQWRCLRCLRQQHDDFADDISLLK
In assay [2] the test system is Aβ40 in conditioned medium of cells stably expressing Amyloid Precursor Protein (APP). As to the kind of experiment: In vitro BACE cell-based assay (Aβ40 in conditioned medium, sandwich ELISA).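 Also: compounds added as a dilution series, secreted peptide quantified by europium time-resolved fluorescence readout, potency fitted from percent of control versus compound concentration.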 On the technique in general: In an ELISA, binding on a coated surface is turned into a signal by an enzyme label.
Where [3] appears, read: BACE enzyme FRET assay, read-out: BACE1 FRET assay (IC50).
Setting [4] is: HEK cells, cell-based assay, read-out: HEK cell assay (IC50).
[5] abbreviates: BACE enzyme assay, read-out: BACE1 FRET assay (IC50).
Where [6] appears, read: Homo sapiens, HEK293, HEK cells, cell-based assay, read-out: HEK cell assay (IC50).
The mark [7] stands for this setting: Table 1, read-out: BACE1 FRET assay.
Where [8] appears, read: Homo sapiens, HEK293, Table 1, HEK cells, read-out: HEK cell assay.

In the case of `COC(C)C(=O)NC(Cc1ccc2c(c1)OCO2)C(O)CNC1CC2(CC(O)C2)Oc2ccc(CC(C)(C)C)cc21` [compound 269, (2R)—N-((1S,2R)-1-(1,3-benzodioxol-5-ylmethyl)-3-(((2r,3′R,4S)-6-(2,2-dimethylpropyl)-3′-hydroxy-3,4-dihydrospiro[chromene-2,1′-cyclobutan]-4-yl)amino)-2-hydroxypropyl)-2-(methyloxy)propanamide], the IC50 came out at 0.242 µM in assay [1] (setting [3]) and 0.103 µM in assay [2] (setting [4]).

In the case of `CC(=O)N[C@@H](Cc1ccc2c(c1)OCO2)[C@H](O)CN[C@H]1CC2(CCC2)Oc2ncc(CC(C)(C)C#N)cc21` [compound 88], the IC50 worked out at 0.0485 µM in assay [1] (setting [5]) and 0.016 µM in assay [2] (setting [6]).

Take `CC(=O)N[C@@H](Cc1cccc(F)c1)[C@H](O)CN[C@H]1CC2(CCC2)Oc2ncc([C@H](F)[C@H](C)C(F)(F)F)cc21` [compound 322]: the figures for the IC50 in assay [1] (setting [7]) and in assay [2] (setting [8]) were 0.0109 µM and 0.0399 µM, respectively.

For `COC(C)C(=O)NC(Cc1cc(F)c2c(c1)OCO2)C(O)CNC1CC2(CCC2)Oc2ncc(CC(C)(C)C)cc21` (stereo not drawn) [compound 300], the IC50 in assay [1] (setting [3]) was 0.0571 µM; in assay [2] (setting [6]), 0.137 µM.

Consider `CC(C)(C)Cc1cnc2c(c1)[C@@H](NC[C@@H](O)[C@H](Cc1cc(F)cc(F)c1)NC(=O)C(C)(Cl)Cl)CC1(CCC1)O2` [compound 97], for which the IC50 in assay [1] (setting [5]) was 0.0138 µM; in assay [2] (setting [6]) it was 0.385 µM.

For `COC(=O)C1CC2(C1)CC(NCC(O)C(Cc1ccc(F)cc1)NC(C)=O)c1cc(CC(C)(C)C)cnc1O2` [compound 258, methyl (1r,3S,4′S)-4′-(((2R,3S)-3-(acetylamino)-4-(4-fluorophenyl)-2-hydroxybutyl)amino)-6′-(2,2-dimethylpropyl)-3′,4′-dihydrospiro[cyclobutane-1,2′-pyrano[2,3-b]pyridine]-3-carboxylate], the IC50 was determined as 0.0389 µM in assay [1] (setting [3]) and 0.0929 µM in assay [2] (setting [4]).

As to `COCCC(=O)N[C@@H](Cc1ccc2c(c1)OCO2)[C@H](O)CN[C@H]1CC2(CCC2)Oc2ncc(CC(C)(C)C)cc21` [compound 197], the IC50 in assay [1] (setting [3]) turned out to be 0.0209 µM; in assay [2] (setting [6]), 0.0219 µM.

Turning to `COCC(=O)N[C@@H](Cc1cc(F)cc(F)c1)[C@H](O)CN[C@H]1CC2(CCC2)Oc2ncc(CC(C)(C)C#N)cc21` [compound 92], the IC50 in assay [1] (setting [5]) worked out at 0.00325 µM; in assay [2] (setting [6]), 0.00621 µM.

For the compound `COCC(=O)N[C@@H](Cc1ccc2c(c1)OCO2)[C@H](O)CN[C@H]1CC2(CCC2)Oc2ncc(CC(C)(C)C(F)(F)F)cc21` [compound 362], the values for the IC50 in assay [1] (setting [7]) and in assay [2] (setting [8]) were 0.0601 µM and 0.123 µM, respectively.

On to `CO[C@H](C)C(=O)N[C@@H](Cc1cccc(C#N)c1)[C@H](O)CN[C@H]1CC2(CCC2)Oc2ncc(CC(F)(F)F)cc21` [compound 345], for which the IC50 in assay [1] (setting [7]) was 0.0266 µM; in assay [2] (setting [8]), 0.0609 µM.

With `COCC(=O)N[C@@H](Cc1ccc2c(c1)OCO2)[C@H](O)CN[C@H]1CC2(CCC2)Oc2ncc(C[C@H](C)C(F)(F)F)cc21` [compound 339], the IC50 came out at 0.0437 µM in assay [1] (setting [7]) and 0.126 µM in assay [2] (setting [8]).

For `CC(C)(C)Cc1cnc2c(c1)[C@@H](NC[C@@H](O)[C@H](Cc1cccc(F)c1)NC(=O)C(C)(Cl)Cl)CC1(CCC1)O2` [compound 106], the IC50 in assay [1] (setting [5]) was found to be 0.0669 µM; in assay [2] (setting [6]) it was 0.834 µM.

In the case of `CC(=O)N[C@@H](Cc1ccc2c(c1)OCO2)[C@H](O)CN[C@H]1CC2(CCC2)Oc2ccc(CC(C)(C)C)cc21` [compound 281], the IC50 amounted to 0.0112 µM in assay [1] (setting [3]) and 0.0597 µM in assay [2] (setting [6]).

Regarding `CO[C@H](C)C(=O)N[C@@H](Cc1cccc(F)c1F)[C@H](O)CN[C@H]1CC2(CCC2)Oc2ncc(CC(C)(C)F)cc21` [compound 71], the IC50 in assay [1] (setting [5]) is 0.0339 µM; in assay [2] (setting [6]), 0.0927 µM.

As for `CCc1cnc2c(c1)[C@@H](NC[C@@H](O)[C@H](Cc1cc(F)cc(-c3nccs3)c1)NC(=O)COC)CC1(CCC1)O2` [compound 728], the IC50 in assay [1] (BACE enzyme assay IC50, read-out: BACE1 FRET assay) came to 0.03 µM; in assay [2] (Homo sapiens, HEK293, HEK cell-based assay IC50, read-out: HEK cell assay), 0.108 µM.

On to `CO[C@H](C)C(=O)N[C@@H](Cc1ccc2c(c1)OCO2)[C@H](O)CN[C@H]1CC2(CCC2)Oc2c1cc(CC(C)(C)C)nc2Cl` [compound 131], for which the IC50 in assay [1] (setting [5]) worked out at 0.0268 µM; in assay [2] (setting [6]) it was 0.376 µM.

Take `CC(C)(C)Cc1cnc2c(c1)[C@@H](NC[C@@H](O)[C@H](Cc1ccc3c(c1)OCO3)NC(=O)[C@H]1CCCO1)CC1(CCC1)O2` [compound 454, (2R)-N-((1S,2R)-1-(1,3-benzodioxol-5-ylmethyl)-3-(((4′S)-6′-(2,2-dimethylpropyl)-3′,4′-dihydrospiro[cyclobutane-1,2′-pyrano[2,3-b]pyridin]-4′-yl)amino)-2-hydroxypropyl)tetrahydro-2-furancarboxamide]: the IC50 in assay [1] (Table 2, read-out: BACE1 FRET assay) was 0.02 µM; in assay [2] (Homo sapiens, HEK293, Table 2, HEK cells, read-out: HEK cell assay) it was 0.027 µM.

On to `CC(=O)N[C@@H](Cc1ccc2c(c1)OCO2)[C@H](O)CN[C@H]1CC2(CCC2)Oc2ncc(CC(C)(F)F)cc21` [compound 275], for which the IC50 is 0.082 µM in assay [1] (setting [3]) and 0.0638 µM in assay [2] (setting [6]).

Consider `CC(=O)N[C@@H](Cc1cc(F)c2c(c1)OCO2)[C@H](O)CN[C@H]1CC2(CCC2)Oc2ncc(CC(C)(C)C)cc21` [compound 306], for which the IC50 in assay [1] (setting [3]) came out at 0.00428 µM; in assay [2] (setting [6]), 0.00747 µM.

With `CC(=O)N[C@@H](Cc1ccc(F)cc1)[C@H](O)CN[C@H]1CC2(CCC2)Oc2ncc(C[C@@H](C)C(F)F)cc21` [compound 199], the IC50 was found to be 0.0452 µM in assay [1] (setting [3]) and 0.0591 µM in assay [2] (setting [6]).

Take `COCC(=O)NC(Cc1ccc2c(c1)OCO2)C(O)CNC1CC2(CC(C)C2)Oc2ncc(CC(C)(C)C)cc21` [compound 238, N-((1S,2R)-1-(1,3-benzodioxol-5-ylmethyl)-3-(((1s,3R,4′S)-6′-(2,2-dimethylpropyl)-3-methyl-3′,4′-dihydrospiro[cyclobutane-1,2′-pyrano[2,3-b]pyridin]-4′-yl)amino)-2-hydroxypropyl)-2-(methyloxy)acetamide]: the IC50 in assay [1] (setting [3]) is 0.0184 µM; in assay [2] (setting [6]) it was 0.0327 µM.

On to `CC(=O)N[C@@H](Cc1ccc(F)cc1)[C@H](O)CN[C@H]1C[C@@]2(CC[C@H]2O)Oc2ncc(CC(C)(C)C)cc21` [compound 116], for which the figures for the IC50 in assay [1] (setting [5]) and in assay [2] (setting [6]) were 0.117 µM and 0.148 µM, respectively.

In the case of `CC(=O)NC(Cc1cccc(F)c1)C(O)CNC1CC2(CC(O)C2)Oc2ncc(CC(C)(C)C)cc21` [compound 231, N-((1S,2R)-3-(((1s,3S,4′S)-6′-(2,2-dimethylpropyl)-3-hydroxy-3′,4′-dihydrospiro[cyclobutane-1,2′-pyrano[2,3-b]pyridin]-4′-yl)amino)-1-((3-fluorophenyl)methyl)-2-hydroxypropyl)acetamide], the IC50 in assay [1] (setting [3]) is 0.00404 µM; in assay [2] (setting [6]) it was 0.00304 µM.

With `CO[C@H](C)C(=O)N[C@@H](Cc1cccc(C#N)c1)[C@H](O)CN[C@H]1CC2(CCC2)Oc2ncc(CC(C)(C)C)cc21` [compound 56], the IC50 in assay [1] (setting [5]) is 0.00263 µM; in assay [2] (setting [6]), 0.00305 µM.

In the case of `COCC(=O)N[C@@H](Cc1ccccc1)[C@H](O)CNC1CC2(CC(F)(F)C2)Oc2ncc(CC(C)(C)C)cc21` (stereo partly drawn) [compound 54], the IC50 worked out at 0.003 µM in assay [1] (setting [5]) and 0.066 µM in assay [2] (setting [6]).

In the case of `CC(=O)N[C@@H](Cc1cc(F)cc(F)c1)[C@H](O)CN[C@H]1CC2(CCC2)Oc2c(F)cc(CC(C)(C)C)cc21` [compound 224], the IC50 in assay [1] (setting [3]) was determined as 0.00467 µM; in assay [2] (setting [6]) it was 0.0193 µM.

Consider `CC(C)(C)Cc1cnc2c(c1)[C@@H](NC[C@@H](O)[C@H](Cc1cccc(F)c1)NC(=O)CCl)CC1(CCC1)O2` [compound 107], for which the results for the IC50 in assay [1] (setting [5]) and in assay [2] (setting [6]) were 0.00507 µM and 0.0224 µM, respectively.
